According to patent US20030054411A1, “GPR motifs and uses thereof” (priority 2001, published 2003):
Values belong to the molecule of their own block, whether it stands above or below them. Where no end group is shown, it is not given here.

What was measured:
Giα1 = target: T1, Giα1 (Homo sapiens, UniProt P63096); test: GTPγS binding assay, Giα1; format: biochemical
T1 construct: made in house; host or cells: Sf9 insect cells
Description: (§1) A and B, the carboxyl region of AGS3 (Pro^463-Ser^650) containing all four GPR repeats was generated as a His-tagged (A) or GST fusion (B) protein for protein interaction assays as described under Examples. All interactions were done in the presence of 10 μM GDP, and the input lanes represent one-tenth of the G-protein used in each interaction assay. A, Giα1 (75 nM) was incubated with 300 nM His-tagged AGS3-GPR in the absence and presence of increasing amounts of the GPR peptide, after which bound Giα was isolated on a nickel affinity matrix, and samples were processed for immunoblotting with Giα antisera. The blot in the upper panel of A was stripped and reprobed with AGS3 antisera to provide internal controls for protein loading. B, Giα2 (75 nM) was incubated with 300 nM AGS3-GPR or GST in the presence and absence of 100 μM GPR consensus peptide, GPR peptide Q15A, or GPR peptide R23F. […] C and D, GTPγ^35S binding to G-proteins (100 nM) was measured in the absence and presence of peptides as described in the Examples. Data are expressed as the percent of specific binding (˜5 pmol) observed in the absence of peptide and represent the means±S.E. derived from three experiments. […]
GTPγS Binding Assays—GTPγS binding assays were generally conducted as described (39). […] Radioactivity bound to the filters was determined by liquid scintillation counting. […]

[1] = target: T2, Giα2 binding to GST-AGS3-GPR (Homo sapiens, UniProt P04899); test: Protein interaction assay: Giα2 binding to AGS3-GPR with GPR peptides; conditions: 10 μM GDP; read-out: IC50 for blocking the binding of Giα2 to GST-AGS3-GPR
T2 construct: made in house; host or cells: Sf9 insect cells (Giα2)
Description: as §1, with “antisera.” for “antisera. The blot in the upper panel of A was stripped and reprobed with AGS3 antisera to provide internal controls for protein loading. B, Giα2 (75 nM) was incubated with 300 nM AGS3-GPR or GST in the presence and absence of 100 μM GPR consensus peptide, GPR peptide Q15A, or GPR peptide R23F.”
(§2) Protein Interaction Assays—The GPR domain of AGS3 (Pro^463-Ser^650) containing the four GPR motifs was generated as a glutathione S-transferase fusion protein by polymerase chain reaction using the full-length cDNA of AGS3 as a template. […] The interaction of GST-AGS3-GPR and HIS-tagged AGS3-GPR with G-proteins was assessed by protein interaction experiments using purified G-protein as described previously (33). […]

Giα2 = target: T3, Giα2 (Homo sapiens, UniProt P04899); test: GTPγS binding assay, Giα2; format: biochemical; conditions: G-protein 100 nM, 30 min, 24° C.; read-out: IC50 for inhibition of GTPγS binding to Giα2
T3 construct: made in house; host or cells: Sf9 insect cells
Description: A and B, the carboxyl region of AGS3 (Pro^463-Ser^650) containing all four GPR repeats was generated as a His-tagged (A) or GST fusion (B) protein for protein interaction assays as described under Examples. All interactions were done in the presence of 10 μM GDP, and the input lanes represent one-tenth of the G-protein used in each interaction assay. A, Giα1 (75 nM) was incubated with 300 nM His-tagged AGS3-GPR in the absence and presence of increasing amounts of the GPR peptide, after which bound Giα was isolated on a nickel affinity matrix, and samples were processed for immunoblotting with Giα antisera. The blot in the upper panel of A was stripped and reprobed with AGS3 antisera to provide internal controls for protein loading. B, Giα2 (75 nM) was incubated with 300 nM AGS3-GPR or GST in the presence and absence of 100 μM GPR consensus peptide, GPR peptide Q15A, or GPR peptide R23F. The immunoblots presented in A and B are representative of three experiments. C and D, GTPγ^35S binding to G-proteins (100 nM) was measured in the absence and presence of peptides as described in the Examples. Data are expressed as the percent of specific binding (˜5 pmol) observed in the absence of peptide and represent the means±S.E. derived from three experiments. The concentration of peptides in D is 10 μM.
GTPγS Binding Assays—GTPγS binding assays were generally conducted as described (39). G-proteins (100 nM) were preincubated for 20 min at 24° C. in the presence and absence of GPR peptides. Binding assays (duplicate determinations) were initiated by addition of 0.5 μM GTPγS (4.0×10^4 dpm/pmol), and incubations (total volume=50 μl) were continued for 30 min at 24° C. Both preincubations and GTPγS binding assays were conducted in binding buffer containing 2 mM MgCl2. Reactions were terminated by rapid filtration through nitrocellulose filters with 4×4-ml washes of stop buffer (50 mM Tris-HCl, 5 mM MgCl2, 1 mM EDTA, pH 7.4, at 4° C.). Radioactivity bound to the filters was determined by liquid scintillation counting. Nonspecific binding was defined by 100 μM […].

[2] = target: T4, Giα1 binding to GST-AGS3-GPR (Homo sapiens, UniProt P63096); test: Protein interaction assay: Giα1 binding to AGS3-GPR with GPR peptide; conditions: 10 μM GDP; Giα1 75 nM, AGS3-GPR 300 nM; read-out: IC50 for blocking the binding of Giα1 to GST-AGS3-GPR
T4 construct: made in house; host or cells: Sf9 insect cells (Giα1); bacteria (His-AGS3-GPR)
Description: as §1, with “antisera.” for “antisera. The blot in the upper panel of A was stripped and reprobed with AGS3 antisera to provide internal controls for protein loading. B, Giα2 (75 nM) was incubated with 300 nM AGS3-GPR or GST in the presence and absence of 100 μM GPR consensus peptide, GPR peptide Q15A, or GPR peptide R23F.”
as §2

Gtα = Gtα (Homo sapiens, UniProt P11488); test: Competition with Gβγ subunits for binding to Gtα
Chain of Gtα (P11488 whole entry): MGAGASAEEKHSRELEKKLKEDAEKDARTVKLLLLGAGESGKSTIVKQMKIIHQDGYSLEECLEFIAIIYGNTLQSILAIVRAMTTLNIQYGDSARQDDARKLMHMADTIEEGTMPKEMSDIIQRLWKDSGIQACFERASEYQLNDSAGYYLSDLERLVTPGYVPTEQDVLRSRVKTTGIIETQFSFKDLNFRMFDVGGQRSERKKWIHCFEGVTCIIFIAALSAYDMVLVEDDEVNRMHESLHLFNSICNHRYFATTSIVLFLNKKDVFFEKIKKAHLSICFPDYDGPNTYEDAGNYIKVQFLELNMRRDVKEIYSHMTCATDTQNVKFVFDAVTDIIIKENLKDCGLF

T1 sequence (P63096 whole entry): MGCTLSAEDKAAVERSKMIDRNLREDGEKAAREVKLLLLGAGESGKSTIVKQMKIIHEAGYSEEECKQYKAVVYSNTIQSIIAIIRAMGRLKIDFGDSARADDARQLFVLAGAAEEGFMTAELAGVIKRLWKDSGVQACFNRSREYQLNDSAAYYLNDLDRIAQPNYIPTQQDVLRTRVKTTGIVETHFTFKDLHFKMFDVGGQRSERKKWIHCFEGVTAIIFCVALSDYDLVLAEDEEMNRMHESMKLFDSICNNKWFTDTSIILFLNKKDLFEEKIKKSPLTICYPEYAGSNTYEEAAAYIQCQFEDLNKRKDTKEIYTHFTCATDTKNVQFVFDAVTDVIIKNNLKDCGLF
T4 sequence (P63096 2-354 limits assumed): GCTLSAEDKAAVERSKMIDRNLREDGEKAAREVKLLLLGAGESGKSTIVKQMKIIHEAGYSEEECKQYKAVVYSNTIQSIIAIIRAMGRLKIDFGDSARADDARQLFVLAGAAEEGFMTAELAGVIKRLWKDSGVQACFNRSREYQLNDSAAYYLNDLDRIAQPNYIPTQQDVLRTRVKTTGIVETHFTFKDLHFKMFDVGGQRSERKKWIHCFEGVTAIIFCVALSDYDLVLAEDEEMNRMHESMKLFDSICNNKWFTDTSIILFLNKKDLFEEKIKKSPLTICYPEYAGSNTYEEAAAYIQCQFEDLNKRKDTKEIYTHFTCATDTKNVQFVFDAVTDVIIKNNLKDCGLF
T2 sequence (P04899 2-355 limits assumed): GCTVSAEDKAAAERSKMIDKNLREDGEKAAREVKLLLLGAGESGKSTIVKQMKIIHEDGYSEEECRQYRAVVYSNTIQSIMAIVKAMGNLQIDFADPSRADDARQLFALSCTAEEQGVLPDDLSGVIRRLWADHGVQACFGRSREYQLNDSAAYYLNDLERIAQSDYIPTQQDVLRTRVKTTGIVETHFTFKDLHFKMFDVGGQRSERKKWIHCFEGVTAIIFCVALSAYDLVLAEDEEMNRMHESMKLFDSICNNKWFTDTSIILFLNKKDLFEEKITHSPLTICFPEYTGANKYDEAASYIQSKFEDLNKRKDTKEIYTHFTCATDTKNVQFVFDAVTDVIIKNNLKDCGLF
T3 sequence (P04899 whole entry): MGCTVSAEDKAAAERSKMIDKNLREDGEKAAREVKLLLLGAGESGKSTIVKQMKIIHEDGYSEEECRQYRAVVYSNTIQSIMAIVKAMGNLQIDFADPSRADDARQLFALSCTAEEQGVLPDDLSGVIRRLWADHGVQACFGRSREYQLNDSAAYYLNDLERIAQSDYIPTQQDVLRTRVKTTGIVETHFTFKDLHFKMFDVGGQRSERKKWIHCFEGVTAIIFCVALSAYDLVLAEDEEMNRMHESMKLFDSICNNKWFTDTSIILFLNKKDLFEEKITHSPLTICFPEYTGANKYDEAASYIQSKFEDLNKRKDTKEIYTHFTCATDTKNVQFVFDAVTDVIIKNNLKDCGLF

- IC50 (Giα1; G-protein 100 nM, 30 min, 24° C., read-out: IC50 for inhibition of GTPγS binding to Giα1): ~200 nM
- IC50 [1]: ~200 nM
- IC50 (Giα2): ~200 nM
- IC50 [2]: ~200 nM
Molecule: TMGEEDFFDLLAKSQSKRMDDQRVDLAG-NH2 [GPR consensus peptide]

- competition with Gβγ subunits for binding to Gtα (Gtα): effectively competed
- GTPγS binding to Giα1 (AGS3-GPR protein) (Giα1): inhibited
B1: AGS3-GPR: GPR domain of AGS3 (Pro463-Ser650) containing the four GPR motifs, GST or His-tagged (protein)
chain: PREGSHSPLDSADVRVQVPRTGIPRAPSSDEECFFDLLSKFQSSRMDDQRCPLEEGQAGAAEATAAPTLEERAAQPSVTASPQTEEFFDLIASSQSRRLDDQRASVGSLPGLRITLNNVGHLRGDGDPQEPGDEFFNMLIKYQSSRIDDQRCPPPDVLPRGPTMPDEDFFSLIQRVQAKRMDEQRVDL
modifications: left off: a dimerising Fc or GST
notes: GPR domain of AGS3 (Pro463-Ser650) containing the four GPR motifs, GST or His-tagged
